“Also recorded” adds a separate entry of the source.
Key:
Hepa1-6 cells = assay: Hepa1-6 cell proliferation; type: cell-based; conditions: with or without regorafenib (5 μM)
Source text: FIG. 37 show anti-proliferative effect of illustrative compounds of the invention in Hepa1-6 cells.

C57BL/6 mice with UUO = assay: Murine unilateral ureter obstruction (UUO) renal fibrosis model; type: in vivo, mouse; conditions: 100 mg/kg daily oral gavage, 9 days after UUO
Experimental: Animal studies were carried out in accordance with the principles of laboratory animal care of the Canadian Council on Animal Care guidelines. Male C57BL/6 mice were obtained from Charles Rivers Laboratories. FIG. 13A summarizes the timeline for this experiment. UUO model was created as follows: male C57BL6J mice (8 weeks old from Charles River Laboratories) were anesthetized with 4% isofluorane and an anesthetic plane was maintained throughout surgery at 1.5-2% isofluorane with 1 L/min oxygen. A 0.5 cm incision was made longitudinally on the left flank. The left ureter and lower pole of the kidney was exposed, and the ureter was ligated with a […] in close proximity to the renal pelvis. A sham operation control group was created by surgical exposure of the left ureter and lower pole of the kidney followed by closure of the incision. Subcutaneous fluids were given (1.5 ml 0.9% NaCl) and the incision was closed with 4′0 silk sutures followed by staples for the skin. Starting the day of model creation, the animals were given a daily dose of either vehicle alone (sham surgery and UUO control, 1.5% CMC and 0.2% Tween-20) or vehicle containing Compound I-32 or Compound I-1 (at 100 mg/kg) by oral gavage for 9 days following surgery. At the end of the treatment period mice were anesthetized prior to euthanasia by bilateral thoraco-abdominal incision. Blood was collected by cardiac puncture, followed by kidney perfusion with cold saline through left ventricular cannulation. The left kidney was removed, a sample taken and fixed in formalin for histological analysis. Trichrome staining was done on formalin-fixed sections (4 μm) following deparaffinization according to manufacturers instructions (Sigma HT15-1KT). Images were quantified by measuring the percentage of positive area using Image J on micrographs captured at ×200 magnification using the BX41 Olympus microscope. Statistical analysis was performed using GraphPad Prism 8. A one-way ANOVA was used to determine significance. A p-value of less than or equal to 0.05 was used as the criterion of significance. This route was selected because it simulates oral administration to mammalian, including human, subjects and ensures that the correct dose of compound is ingested by each animal.
Immunohistochemistry. Formalin-fixed kidneys were embedded in paraffin, then sectioned at 4 μm. After deparaffinization, they were stained with Masson's trichrome to assess collagen content (Sigma Aldrich, catalogue no. HT15-1T), picrosirius red (PSR) to more specifically assess pathogenic collagens I and III (Polysciences, Inc., catalogue no. 24901-500), αSMA as a marker of activated, profibrotic fibroblasts (PIERCE, catalogue no. MA1-06110; 30 min steaming for antigen retrieval, antibody used at 1:5000 for 2 h at room temperature), CD3 to identify T-lymphocytes (Dako, catalogue no. A0452; 30 min steaming for antigen retrieval, antibody used at 1:500 overnight at 4° C.) and F4/80 to identify, macrophages (done by the McMaster Histology Facility). Slides were counterstained with hematoxylin, dehydrated twice with 90% ethanol, cleared twice with xylene, coverslipped with mounting media, and then left to dry overnight before imaging. Masson's trichrome, αSMA, CD3 and F4/80 were imaged under transmitted light and quantified using ImageJ. The Olympus IX81 fluorescence microscope driven by Metamorph was used to image and quantify PSR staining. Images were quantified by measuring the percentage of positive area. All micrographs were captured at ×20 magnification.

female Wistar Han rats = assay: 4-day oral gavage toxicity study in female rats; conditions: for clinical chemistry: globulin concentration and albumin:globulin ratio: 100 mg/kg/day Compound I-1 or 300 mg/kg/day Compound I-1 or Compound I-32; for compound-related effects in hematology or coagulation test results / compound-related mortality, clinical observations, body weight effects, changes in food consumption / dose whose effects were considered nonadverse: female rats, 4 days; for compound-related effects in hematology or coagulation test results / compound-related mortality, clinical observations, body weight effects, changes in food consumption: 100 or 300 mg/kg/day oral gavage; for dose whose effects were considered nonadverse: oral gavage; for microscopic findings in the liver: ≥100 mg/kg/day Compound I-1 or 300 mg/kg/day Compound I-32

SMILES | effect on proliferation (Hepa1-6 cells) | T-lymphocyte infiltration (CD3 stain) (C57BL/6 mice with UUO) | UUO-induced increases in Trichrome and αSMA (renal fibrosis) (C57BL/6 mice with UUO) | macrophage infiltration (F4/80 stain) (C57BL/6 mice with UUO) | clinical chemistry: globulin concentration and albumin:globulin ratio (female Wistar Han rats) | microscopic findings in the kidney (female Wistar Han rats; 300 mg/kg/day) | compound-related effects in hematology or coagulation test results (female Wistar Han rats) | compound-related mortality, clinical observations, body weight effects, changes in food consumption (female Wistar Han rats) | dose whose effects were considered nonadverse (female Wistar Han rats) [mg/kg/day] | microscopic findings in the liver (female Wistar Han rats) | clinical chemistry: serum urea nitrogen concentration (female Wistar Han rats; 300 mg/kg/day)
CC(C)(CCCCc1ccc(CCCCC(C)(C)C(=O)O)cc1)C(=O)O [Compound I-1, 6-[4-(5-carboxy-5-methylhexyl)-phenyl]-2,2-dimethylhexanoic acid] | anti-proliferation effect | no effect on T-lymphocytes | decreased | significantly reduced macrophage infiltration | minimally lower globulin concentration and minimally higher albumin:globulin ratio | tubular degeneration/necrosis, tubular regeneration, and increased mitoses | No Compound I-1- or Compound I-32-related effects in hematology or coagulation test results were identified | No Compound I-1- or Compound I-32-related mortality, clinical observations, body weight effects, or changes in food consumption were noted | 100 | increase in mitoses in hepatocytes | 
CC(C)(CCCCc1cccc(CCCCC(C)(C)C(=O)O)c1)C(=O)O [Compound I-32, 6-[3-(5-carboxy-5-methylhexyl)-phenyl]-2,2-dimethylhexanoic acid] | anti-proliferation effect | no effect on T-lymphocytes | trend to reduction | significantly reduced macrophage infiltration | minimally lower globulin concentration and minimally higher albumin:globulin ratio |  | No Compound I-1- or Compound I-32-related effects in hematology or coagulation test results were identified | No Compound I-1- or Compound I-32-related mortality, clinical observations, body weight effects, or changes in food consumption were noted | 300 | increase in mitoses in hepatocytes; also recorded: periportal hepatocyte vacuolation | Minimally lower serum urea nitrogen concentration

From patent US11730712B2, “Functionalized long-chain hydrocarbon mono- and di-carboxylic acids and derivatives thereof, and their use for the prevention or treatment of disease” (ESPERVITA THERAPEUTICS, INC., priority 2021, dated 2023)
